Results: patent publication US11559525B2, “Therapeutic drug for dyskinesia” (Sumitomo Pharma Co., Ltd., priority 2019, dated 2023)
Marks after values point to notes of the source that are not given here.

Assays:
[1] = Plasma tandospirone concentration measured after observation and evaluation of behavior in PD-LID rats; type: in vivo, rat; details: rat, plasma
Experimental: 50 μL of rat plasma sample was fractionated into a polypropylene microtube. 50 μL of methanol (50 μL of standard solution for calibration curve sample) and 200 μL of internal standard solution (Bezafibrate methanol solution: 200 nmol/L, 200 μL of methanol for blank sample) are added and stirred for about 10 seconds with a mixer. This is centrifuged (4° C., 4500 rpm, 10 min), and then the supernatant is subjected to vacuum filtration using a filter (FastRemover MF 0.2 μm). 70 μL of aqueous 10 mmol/L ammonium acetate solution is added to 70 μL of the resulting filtrate and stirred for about 10 seconds with a mixer to prepare a measurement sample.
When evaluating a tape agent, the hair on the abdominal region of rats was shaved before the evaluation date. The tape agent of formulation 2 was applied to the abdominal regions of rats on the evaluation date at 60 cm^2/kg (37 mg/kg). After 4 hours from application, a levodopa containing solution was intraperitoneally administered to observe and evaluate the behavior. Individuals with 50% or more of the tape agent coming off during the test were excluded from analysis.
After 4 hours from application, a levodopa containing solution was intraperitoneally administered to observe and evaluate the behavior. Individuals with 50% or more of the tape agent coming off during the test were excluded from analysis.
After 4 hours, a levodopa containing solution was administered to observe and evaluate the behavior.
After 4 hours, a levodopa containing solution was administered to observe and evaluate the behavior (day 0 of implanting the pump). Repeat administration of once daily levodopa containing solution was continued thereafter. The behavior was also observed and evaluated on day 13 of implanting the pump.

[2] = system: PD-LID rat model (6-OHDA-lesioned rats); assay: ON-time prolongation action (ON score, ON time without dyskinesia) in PD-LID rat model; type: in vivo; details: oral 100 mg/kg as citrate
Experimental: To make a PD-LID rat model, a mixture of levodopa methyl ester hydrochloride (6 mg/kg; Sigma-Aldrich) dissolved in saline and benserazide hydrochloride (15 mg/kg; Sigma-Aldrich) (hereinafter, also referred to as “levodopa containing solution”) was intraperitoneally administered once daily to 6-OHDA-lesioned rats. The levodopa containing solution was repeatedly administered for 3 weeks or longer to observe and evaluate the behavior. […] The sum of the scores for Limb AIMs, Axial AIMs, and Orolingual AIMs in 3 hours was used as the total dyskinesia-like symptom (AIMs) score. Individuals with a total AIMs score of less than 10 were excluded from the test as not manifesting a dyskinesia-like symptom. The behavior was observed and evaluated before the drug evaluation date. The rats were assigned to each dosing group by using the 3 hour total dyskinesia-like symptom (AIMs) score, Locomotive behavior score, and rat body weight as indicators, which were used for evaluation of drugs. For an indicator of dyskinesia behavior, the sum of the Limb AIMs, Axial AIMs, and Orolingual AIMs at each evaluation point was used as the AIMs score. For the rotational behavior (ON score), Locomotive behavior at each evaluation point was used as an indicator. The total ON score in 3 hours was used as the total ON score. For ON time without dyskinesia, the period during which the AIMs score is 0 and Locomotive behavior is 1 or greater at each evaluation point was added. Duration of action of levodopa without a dyskinesia symptom (ON time without dyskinesia) refers to the aggregate time with no dyskinesia during the antiparkinsonian action effective time, i.e., “ON-time”, and defined as the time during which the dyskinesia symptom (AIMs) score is 0 and the rotational behavior (Locomotive behavior) score is 1 or greater at each evaluation point after levodopa administration. […] After 5 minutes, a levodopa containing solution was intraperitoneally administered, and the behavior was observed and evaluated. The results in the drawings are indicated in terms of mean value±standard error. The test results were statistically analyzed by comparison with the solvent administration group using the Steel test with the total ON score in 3 hours or ON time without dyskinesia as an indicator. ** indicates p<0.01, meaning that there is a significant difference. For evaluation of a tape agent, the abdominal regions of the rats were shaved prior to the evaluation date. […] After 4 hours from application, a levodopa containing solution was intraperitoneally administered to observe and evaluate the behavior. The results in the drawings are indicated in terms of mean value±standard error. Individuals with 50% or more of the tape agent coming off during the test were excluded from analysis. The test results were statistically analyzed by comparison with the placebo tape administration group using Wilcoxon rank sum test with the total ON score in 3 hours or ON time without dyskinesia as an indicator. * indicates p<0.05 and ** indicates […], meaning that there is a significant difference compared to the solvent oral administration group or the placebo tape administration group.

[3] = molecular target: dopamine 2 receptors (Homo sapiens, UniProt P14416); details: in vitro; cited from earlier work
Sequence of dopamine 2 receptors (P14416 whole entry, the tested form may be a part): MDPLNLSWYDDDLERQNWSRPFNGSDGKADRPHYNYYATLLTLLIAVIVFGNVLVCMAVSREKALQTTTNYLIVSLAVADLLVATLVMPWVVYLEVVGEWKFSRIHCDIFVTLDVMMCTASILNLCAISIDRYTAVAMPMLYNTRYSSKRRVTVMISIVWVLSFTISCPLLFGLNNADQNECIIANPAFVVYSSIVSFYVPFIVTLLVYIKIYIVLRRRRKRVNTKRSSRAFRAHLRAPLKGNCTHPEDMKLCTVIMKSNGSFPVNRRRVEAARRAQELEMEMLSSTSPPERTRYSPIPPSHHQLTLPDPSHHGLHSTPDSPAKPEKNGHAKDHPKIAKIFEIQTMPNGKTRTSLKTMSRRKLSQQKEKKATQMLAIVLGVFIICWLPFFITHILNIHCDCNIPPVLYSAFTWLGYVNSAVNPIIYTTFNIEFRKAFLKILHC

[4] = system: PD-LID rat model (6-OHDA-lesioned rats); assay: Dyskinesia improving effect upon continuous subcutaneous infusion of tandospirone in PD-LID rat model; type: in vivo
Experimental: The behavior was observed and evaluated before the drug evaluation date. The rats were assigned to each dosing group by using the 3 hour AIMs score, Locomotive behavior score, and rat body weight as indicators, which were used for evaluation of drugs. However, individuals with a total AIMs score of less than 10 were excluded from the test as lacking manifestation of a dyskinesia-like symptom. Individuals with a body weight deviating 10% or more from the mean body weight were also excluded from the test to minimize variation in the dosage for each individual. […] The prepared solution was used after injection into an ALZET® Osmotic Pump MODEL 2ML1 (9.68 μL/hour; DURECT). […] After 4 hours, a levodopa containing solution was administered to observe and evaluate the behavior. […] The results in the drawings are indicated in terms of mean value±standard error. The test results were statistically analyzed by comparison with the solvent administration group by Steel test using the total AIMs score in 3 hours and the total AIMs score in 100 to 180 minutes as parameters. * indicates p<0.05, meaning that there is a significant difference.

[5] = system: PD-LID rat model (6-OHDA-lesioned rats); assay: Oral administration of tandospirone citrate on dyskinesia-like symptoms in PD-LID rat model; type: in vivo
Experimental: The behavior was observed and evaluated using the same method as Example 2. […] After 5 minutes, a levodopa containing solution was intraperitoneally administered, and the behavior was observed and evaluated. The results in the drawings are indicated in terms of mean value±standard error. The test results were statistically analyzed by comparison with the solvent administration group by Steel test using the total AIMs score in 3 hours and total AIMs score in 100 to 180 minutes as parameters. * indicates p<0.05, meaning that there is a significant difference. The dosage was described as a numerical value converted in terms of tandospirone free form.

[6] = continuous subcutaneous infusion 1.25 mg/kg/hour
[7] = oral 20 mg/kg as free form, FIGS. 7A-7C
[8] = oral 20 mg/kg as free form, FIGS. 8A-8L

Work on `O=C1[C@@H]2[C@H]3CC[C@H](C3)[C@@H]2C(=O)N1CCCCN1CCN(c2ncccn2)CC1` [tandospirone, (1R,2S,3R,4S)—N-[4-{4-(pyrimidine-2-yl)piperadine-1-yl}butyl]-2,3-bicyclo[2.2.1]heptanedicarboximide] yielded a concentration at 7 h ([1]; continuous subcutaneous infusion 0.05 mg/kg/hour) of 23.5 ng/mL, a concentration at 7 h ([1]; continuous subcutaneous infusion 0.25 mg/kg/hour) of 119 ng/mL and a concentration at 7 h [1, 6] of 541 ng/mL. For the same molecule, the “ON-time without dyskinesia for 180 minutes (Locomotive behavior ≥1, and AIMs score=0)” value [2] was “prolongation of ON time without dyskinesia was observed only at a dose at which there is a risk of side effects”, the “affinity in receptor binding” value [3] was “low affinity” and the “dyskinesia-like symptoms (total AIMs score in 180 minutes) vs solvent” value [4, 6] was “significant improvement”. For the same molecule, the “total AIMs score in 100 to 180 minutes vs solvent” value [4, 6] was “significant improvement”, the “dyskinesia-like symptoms (total AIMs score in 180 minutes)” value ([4]; continuous subcutaneous infusion 0.05, 0.25, 1.25 mg/kg/hour, levodopa after 4 hours) was “dose-dependently improved dyskinesia-like symptoms” and the “clear dyskinesia-like symptom (mean AIMs score of 2 or greater) at 120 to 140 minutes after levodopa administration” value ([4]; continuous subcutaneous infusion 0.05-1.25 mg/kg/hour) was “not found”. For the same molecule, the rebound symptom ([4]; continuous subcutaneous infusion, any of the dosages) was “did not lead to a rebound symptom”, the “(i) Indicator of degree of improvement in dyskinesia symptom, in words” value (“(i) Indicator of degree of improvement” for short) ([5]; oral 6.7 mg/kg as free form) was “No improvement” and the “(i) difference in total AIMs score in 3 hours (solvent minus tandospirone)” value (shortened to “(i) difference … (solvent minus tandospirone)”) ([5]; oral 6.7 mg/kg as free form) was −3.1. For the same molecule, the “(ii) Indicator of rebound symptom of dyskinesia, in words” value ([5]; oral 6.7 mg/kg as free form) was “Exacerbating trend”, the “(ii) difference in total AIMs score in 100 to 180 minutes (solvent minus tandospirone)” value (shortened to “(ii) difference … (solvent minus tandospirone)”) ([5]; oral 6.7 mg/kg as free form) was −3.5 and the “(i) Indicator of degree of improvement” value ([5]; oral 20 mg/kg as free form) was “No improvement”. The “(ii) Indicator of rebound symptom of dyskinesia, in words” value ([5]; oral 20 mg/kg as free form) was “Exacerbation”, the “(i) difference … (solvent minus tandospirone)” value [5, 7] was −6.5(FIGS. 7A-7C) and the “(ii) difference … (solvent minus tandospirone)” value [5, 7] was −9.1*(FIGS. 7A-7C). For the same molecule, the “(i) difference … (solvent minus tandospirone)” value [5, 8] was −8.6(FIGS. 8A-8L), the “(ii) difference … (solvent minus tandospirone)” value [5, 8] was −8.5*(FIGS. 8A-8L) and the “(i) Indicator of degree of improvement” value ([5]; oral 67 mg/kg as free form) was “No improvement”. The “(i) difference … (solvent minus tandospirone)” value ([5]; oral 67 mg/kg as free form) was 2.9, the “(ii) Indicator of rebound symptom of dyskinesia, in words” value ([5]; oral 67 mg/kg as free form) was “Exacerbation” and the “(ii) difference … (solvent minus tandospirone)” value ([5]; oral 67 mg/kg as free form) was −10.1*.
